Measured values reported in patent US20260049282A1, “METHOD FOR REMOVING SENESCENT CELL, AND METHOD FOR PREPARING SENESCENT CELL” (The University of Tokyo, priority 2018, published 2026).

Legend:
[1] = test system: senescent cells (senescence-induced normal human fibroblasts HCA2); assay: Viable cell count (trypan blue) of senescent cells treated with glutaminase inhibitor; assay type: cell-based
Protocol: RO3306 (SIGMA-ALDRICH) (final concentration: 9 μM) was added to normal human fibroblasts (HCA2), followed by culture at 37° C. and 5% CO2 for 16 hours. Next, culture was performed at 37° C. and 5% CO2 for 8 hours in a culture medium containing RO3306 (final concentration: 9 μM) and Nutlin-3a (SIGMA-ALDRICH) (final concentration: 10 μM), and then culture was performed at 37° C. and 5% CO2 for 48 hours in a culture medium containing Nutlin-3a (final concentration: 10 μM). Culture was performed at 37° C. and 5% CO2 for 9 days while replacing the medium with a medium containing BI2536 (SIGMA-ALDRICH) (final concentration: 100 nM) every 3 days. Thereafter, senescence induction was carried out by performing culture at 37° C. and 5% CO2 for 9 days while replacing the medium with a normal medium (FIG. 1A).
(§1) Senescent cells and normal cells were seeded in 6-cm culture dishes such that approximately 10,000 cells were in each dish.

[2] = test system: S6K protein T389 phosphorylation (indicator of activation of mTOR); assay: Western blotting of S6K protein T389 phosphorylation in senescent cells; assay type: cell-based, human
Protocol: Further, the molecular mechanism of SASP inhibition was analyzed. […] Cell extracts were prepared from the cultured cells using Laemmli-buffer (2% SDS, 10% glycerol, 5% 2-mercaptoethanol, 0.002% bromophenol blue, and 62.5 mM Tris HCl at pH 6.8). Cell extracts (20 to 50 μg) were separated by SDS-PAGE, and after transcription to PVDF membrane, Western blotting was performed using an antibody to the T389 phosphorylation site of the […] protein (CST), an antibody to the S6K protein (CST), and an antibody to the p16 protein (abcam), and detection was performed by ECL.

[3] = test system: normal cells (normal human fibroblasts HCA2); assay: Viable cell count (trypan blue) of normal cells treated with glutaminase inhibitor; assay type: cell-based; settings: BPTES final concentration 10 μM, 3 days
Protocol: as §1

[4] = test system: IL-6 and IL-8 mRNA expression; assay: qPCR of SASP factors IL-6 and IL-8 mRNA in senescent cells; assay type: cell-based, human; settings: BPTES 2.5 μM, 24 hours
Protocol: After reverse transcription from total RNA into cDNA using the SuperScript II cDNA synthesis kit (Invitrogen) was performed, qPCR analysis was performed using the Power SYBR Green PCR Master Mix (Applied Biosystems) so as to measure the IL-6 and IL-8 expression levels. Primers for detecting the IL-6 and IL-8 mRNA expression levels are shown below.

[5] = test system: ammonia production in senescent cells; assay: Intracellular ammonia quantification (ammonia assay kit); assay type: cell-based, human; settings: BPTES final concentration 10 μM, 24 hours
From the text: Senescent cells and normal cells were separately seeded in 10-cm culture dishes such that approximately 50,000 cells were in each dish. […] Thereafter, the amount of ammonia in cells was quantified using the ammonia assay kit (abcam).

[6] = test system: intracellular pH in senescent cells; assay: Intracellular pH measurement; assay type: cell-based, human; design: dose or concentration left out as unconfirmed; settings: BPTES final concentration, 24 hours; normal level about 7.4
Protocol: Next, senescent cells and normal cells were separately seeded in 6-cm well plates such that approximately 50,000 cells were in each plate. […] The medium was removed, culture was performed at 37° C. and 5% CO2 for 10 minutes in a HEPES solution containing […] (DOJINDO LABORATORIES) at a final concentration of 3 μM, and washing with the HEPES solution was performed three times. Thereafter, luminescence was measured with a plate reader. In order to determine the pH value, the amount of luminescence of cells treated with the HEPES solution (pH 6.0 to 7.6) containing nigericin at a final concentration of 10 μM was corrected.

senescent cells [7] = assay: Effect of mPTP inhibitors on cell death of BPTES-treated cells (trypan blue count); assay type: cell-based, human; settings: BPTES 10 μM alone
Protocol: The previous reports have shown that lowering intracellular pH causes apoptosis-independent cell death through the opening of mitochondrial permeability transition pore (mPTP) by the BNIP3 protein. Therefore, the effects of mPTP inhibitors (DUB and CsA) on BPTES-treated cells were examined.
(§2) Senescent cells and normal cells were separately seeded in 6-cm culture dishes such that approximately 10,000 cells were in each dish. […] Thereafter, the cells were stained with trypan blue every 24 hours, and the number of viable cells was counted using a hemocytometer.

senescent cells [8] = assay: Cell viability of BPTES-treated cells in weakly basic medium (trypan blue count); assay type: cell-based, human; settings: BPTES 10 μM
Protocol: Next, the pH of the medium of BPTES-treated cells was made weakly basic (pH 8.0 or pH 8.5), and the cell viability was examined.
as §2

[9] = test system: p16 mRNA (marker of senescent cells); assay: Removal of senescent cells in vivo: p16 mRNA by qPCR in organs of aged mice; settings: 96-week-old C57BL6/N male mice, 12.5 mg/kg body weight once a week for 1 month
Protocol: Then, each mouse was dissected, RNA was extracted by homogenizing the heart, brain, kidney, and liver, and total RNA was prepared using the RNeasy mini kit (Qiagen) according to the attached protocol and reverse transcribed into cDNA using the ReverTra Ace qPCR RT kit (Takara). Using the obtained cDNA, the expression level of p16 mRNA, which is a marker of senescent cells, was analyzed by qPCR using Power SYBR Green PCR Master Mix (Applied Biosystems). The p16 mRNA expression level was corrected by the value of GAPDH. Primers for detecting the p16 mRNA expression level are shown below.

aged mice (76 weeks old) = assay: Age-associated dysfunction of kidney, lung, heart and liver in aged mice; assay type: in vivo; settings: BPTES 0.25 mg/20 g/200 μl intraperitoneally, 1 month
From the text: It is examined whether removal of senescent cells by inhibition of glutaminolysis could improve aging or age-associated organ dysfunction.
The kidney, lung, liver, and heart were embedded with an OCT compound, thereby preparing frozen sections. Thereafter, tissue staining with hematoxylin-eosin (H&E), tissue staining with a Masson trichrome (MT) reagent, a periodic acid Schiff (PAS) reagent (Fisher Scientific), or immunostaining with DAB (3,3′-diaminobenzidine tetrahydrochloride) (DAKO) using an anti-F4-80 antibody (CST) was performed. After staining, tissue sections were observed under a microscope.
Kidney glomerulosclerosis was evaluated for 40 glomeruli per individual based on PAS-positive intensity and range. In addition, the serum urea concentration and creatinine concentration were measured using the Urea Assay kit (Abcam) and the Creatinine Assay kit (Abcam), respectively.
The degree of lung fibrosis was assessed by MT staining. […] In addition, when the MT-stained area was quantified by a BZ-X analyzer (Keyence), the degree of fibrosis was improved in the lungs of BPTES-treated mice as compared with the lungs of control mice (FIG. 7B, top).
For the heart, MT staining of heart tissue sections was performed so as to assess the degree of fibrosis (FIG. 8A). In addition, the heart weight was weighed, and the cardiomyocyte size was measured with a BZ-X analyzer (Keyence). As for the heart, the degree of fibrosis in the heart of BPTES-treated mice was improved as compared with the control mice (FIG. 8B).
Liver tissue sections were immunostained with an anti-F4/80 antibody (FIG. 9A) so as to assess the degree of macrophage infiltration. The degree of macrophage infiltration in the liver of BPTES-treated mice was improved compared to control mice (FIG. 9B).

mice fed a high fat diet = assay: Obesity-associated senescent cell accumulation, macrophage infiltration and hypertrophy of white adipose tissue (high-fat diet mice); assay type: in vivo; settings: high-fat diet 8 weeks, BPTES 0.25 mg/20 g/200 μl i.p. 3 times a week in latter 4 weeks
Protocol: Eight-week-old male mice (C57BL/6N) were maintained on a high-fat diet (HFD32, CLEA Japan) or a normal diet for 8 weeks. […] Then, white adipose tissue was collected from mice, and the accumulation of senescent cells was examined by SA-β-gal staining, and macrophage infiltration was examined by immunostaining with the anti-F4/80 antibody. In situ staining with SA-β-gal and the determination of the abundance ratio of SA-β-gal positive cells were carried out as described in 2-5-2. The degree of macrophage infiltration was determined as described in 2-5-1. The adipocyte size was measured with a BZ-X analyzer (Keyence).

[10] = test system: ApoE knockout mice on atherogenetic diet; assay: Obesity-associated atherosclerosis in ApoE knockout mice (Sudan IV staining of aorta); assay type: in vivo; settings: atherogenetic diet 8 weeks, BPTES 0.25 mg/20 g/200 μl i.p. 3 times a week in latter 4 weeks
Protocol: C57BL/6J ApoE knockout mice (8 weeks old) were maintained on an atherogenetic diet (D12108C, Research Diets Inc.) for 8 weeks. […] In addition, C57BL/6J wild-type male mice (8 weeks old) were maintained on a normal diet as controls. All aortas except the arterial arch were cleanly depleted of adventitial fat, incised, and fixed flat in 4% […] at 25° C. for 12 hours. The aorta was washed with 70% ethanol for 5 minutes, incubated in 0.5% Sudan IV (in 1:1 acetone/ethanol) for 5 minutes, and then washed 3 times with 80% ethanol for 1 minute. Plaque formed in the aorta was stained with Sudan IV, the Sudan IV-positive area was quantified with ImageJ, and the plaque number was counted under a microscope.

[11] = test system: mice on choline-deficient L-amino acid-defined high-fat diet; assay: Liver dysfunction associated with non-alcoholic steatohepatitis (choline-deficient L-amino acid-defined high-fat diet mice); assay type: in vivo; settings: NASH diet 8 weeks, BPTES 0.25 mg/20 g/200 μl i.p. 3 times a week in latter 4 weeks
Protocol: Eight-week-old male mice (C57BL/6N) were maintained on a choline-deficient L-amino acid-defined high-fat diet (A06071302, Research Diets Inc.) for 8 weeks. […] The serum AST level and the hydroxyproline (OH-Pro) level in the liver were measured by the AST assay kit (Abcam) and the Hydroxyproline assay kit (Abcam), respectively. In addition, the expression levels of p16, KGA, and IL-6 were measured by qPCR. Primers for qPCR are shown below.

For `COC(=O)CCC(=O)C(=O)OC` [DM-KG], the “rescue of senescent cell-selective cell death caused by BPTES” value ([1]; BPTES 10 μM plus transmembrane α-ketoglutaric acid) was “could hardly rescue” and the “rescue of the BPTES inhibitory effect on S6K T389 phosphorylation” value ([2]; BPTES plus DM-KG) was “rescued”.

In the case of `O=C(Cc1ccccc1)Nc1nnc(CCSCCc2nnc(NC(=O)Cc3ccccc3)s2)s1` [BPTES, bis-2-(5-phenylacetamido-1,3,4-thiadiazol-2-yl)ethyl sulfide], the “impact on the survival of senescent cells” value ([1]; BPTES final concentration 2.5 μM) is reported as “little impact”, the “number of cells (viable cells)” value [3] is reported as “increase in the number of cells” and the “IL-6 mRNA expression” value [4] is reported as “inhibits mRNA expression”. The “IL-8 mRNA expression” value [4] was “inhibits mRNA expression”, the “phosphorylation of the S6K protein T389” value ([2]; BPTES 2.5 μM, 24 hours) was “inhibits phosphorylation” and the “ammonia production in senescent cells” value [5] was “suppresses the increased ammonia production in senescent cells to the same level as in normal cells”. For the same compound, the “intracellular pH in senescent cells” value [6] was “about 6.0”, the “cell death seen with BPTES treatment” value (senescent cells [7]) was “at least 90%” and the “cell death seen with BPTES treatment” value (senescent cells [8]; medium not weakly basic (pH 7.4)) was “at least 90%”. For the same compound, the “cell death with BPTES under weakly basic pH conditions” value (senescent cells [8]; medium pH 8.0 or pH 8.5) was “about 30%”, the “p16 mRNA expression in the brain” value [9] was “decreased” and the “p16 mRNA expression in the heart” value [9] was “decreased”. The “p16 mRNA expression in the kidney” value [9] was “decreased”, the “p16 mRNA expression in the liver” value [9] was “decreased” and the cardiomyocyte size (aged mice (76 weeks old)) was “smaller than that of control mice”. The heart weight (aged mice (76 weeks old)) was “lighter than that of young mice”, the serum creatinine concentration (aged mice (76 weeks old)) was “reduced” and the serum urea concentration (aged mice (76 weeks old)) was “reduced”. The “degree of fibrosis in the heart (MT staining)” value (aged mice (76 weeks old); vs control mice) was “improved”, the “degree of glomerulosclerosis (PAS staining)” value (aged mice (76 weeks old); vs control mice) was “improved” and the “degree of lung fibrosis (MT-stained area)” value (aged mice (76 weeks old); vs control mice) was “improved”. The “degree of macrophage infiltration in the liver (anti-F4/80 immunostaining)” value (aged mice (76 weeks old); vs control mice) was “improved”, the “accumulation of senescent cells associated with obesity (SA-β-gal, white adipose tissue)” value (mice fed a high fat diet) was “reduced” and the “degree of macrophage infiltration in white adipose tissue (anti-F4/80)” value (mice fed a high fat diet) was “reduced”. For the same compound, the “size of adipocytes associated with obesity” value (mice fed a high fat diet) was “reduced”, the “weight of white adipose tissue” value (mice fed a high fat diet) was “reduced” and the “aortic plaque area (Sudan IV-positive area)” value [10] was “reduces”. The aortic plaque number [10] was “reduces”, the “IL-6 expression level in the liver (qPCR)” value [11] was “lowers” and the “KGA expression level in the liver (qPCR)” value [11] was “lowers”. The “hydroxyproline (OH-Pro) level in the liver” value [11] was “lowers”, the “p16 expression level in the liver (qPCR)” value [11] was “lowers” and the “serum AST level” value [11] was “lowers”.
